inhibition, melting point and CC50 data for 24 molecules are collected here from patent publication US20190308956A1, “PIPERAZINE DERIVATIVES AS ANTIVIRAL AGENTS WITH INCREASED THERAPEUTIC ACTIVITY” (SERVICIO ANDALUZ DE SALUD, priority 2016, published 2019).

For data set [1], the system named is HAdV5-GFP. Briefly: Plaque assay, HAdV5-GFP in 293β5 cells. Format: cell-based. The settings on record: read-out: Percentage of plaque formation inhibition, HAdV5-GFP, 10 μM, 293β5 cell line. The method, then: 1.5. Plaque assay. For low MOI infections, active compounds were further evaluated in a plaque assay. 293β5 cells were seeded in 6-well plates at 4×10^5 cells per well in duplicate for each condition. When cells reached 80-90% confluency, they were infected with HAdV5-GFP or HAdV16-GFP (0.06 vp/cell) and rocked for 2 h at 37° C. The inoculum was removed and the cells were washed once with PBS. The cells were then carefully overlaid with 4 ml/well of equal parts of 1.6% […] Difco Agar Noble (Becton, Dickinson & Co, Sparks, MD) and 2× EMEM (BioWhittaker) supplemented with 2x penicillin/streptomycin, 2× L-glutamine and 10% FBS. The mixture also contained compound in concentrations ranging from 5 to 1 μM. Following incubation for 7 days at 37° C., plates were scanned with a Typhoon 9410 imager (GE Healthcare Life Sciences), and plaques were quantified with ImageJ.43
For the plaque assay 293β5 cells were infected with HAdV5-GFP (in the presence of compound at 10 μM) (Table 2). From this generation of compounds, our primary screening identified 4 compounds (12, 13, 22 and 25) that inhibited HAdV5-GFP plaque formation >90% compared to a control with the same volume of DMSO.

Data set [2] can be described thus: Cytotoxicity assay (alamarBlue cell viability). The data set is classed as cell-based, Human. The note with it: human, A549 cells. The method, then: 1.4. Cytotoxicity assay. The cytotoxicity of the compounds was measured using the AlarmBlue cell viability assay (Invitrogen) according to the manufacturer's instructions. Actively dividing A549 cells were incubated with compounds for 48 h. After the incubation the alamarBlue reagent was added to the cells ( 1/10th alamarBlue reagent in culture medium) for an extra 4 h. The 50% cell cytotoxic concentration (CC50) of the molecules was calculated according to Cheng et al.42 The selectivity index (SI) was evaluated as the ratio of CC50 to IC50, where the IC50 is defined as the concentration of compound that inhibits HAdV infection by 50%.

In the case of `CC1CN(C(=O)OC(C)(C)C)CCN1C(=O)c1ccc([N+](=O)[O-])cc1` (centres unmarked) [Compound 10, 4-tert-Butoxycarbonyl-2-methyl-1-(4-nitrobenzoyl)piperazine], the melting point fell in the range of 115 to 117 °C. Also, the inhibition at 10 µM in data set [1] is 33.6 ± 2.17%.
On the same counts, the results for `COc1ccc(C(=O)N2CCN(C(=O)OC(C)(C)C)CC2C)cc1` (centres unmarked) [Compound 11, 4-tert-Butoxycarbonyl-1-(4-methoxybenzoyl)-2-methylpiperazine] are 84 to 87 °C and 33.8 ± 4.02%.
The molecule `CC1CN(C(=O)C(C)(C)C)CCN1C(=O)c1ccc([N+](=O)[O-])cc1` (centres unmarked) [Compound 15, 2-Methyl-1-(4-nitrobenzoyl)-4-pivaloylpiperazine] displayed a melting point of 143 to 145 °C. Also, the inhibition at 10 µM in data set [1] came to 23.1 ± 3.71%.
On the same counts, the results for `COc1ccc(C(=O)N2CCN(C(=O)C(C)(C)C)CC2C)cc1` (centres unmarked) [Compound 16, 1-(4-Methoxybenzoyl)-2-methyl-4-pivaloylpiperazine] are 96 to 97 °C and 0%.
In turn, `CC1CN(C(=O)c2ccccc2)CCN1C(=O)c1ccc([N+](=O)[O-])cc1` (centres unmarked) [Compound 20, 4-Benzoyl-2-methyl-1-(4-nitrobenzoyl)piperazine] showed a melting point of 103 to 105 °C. Also, the inhibition at 10 µM in data set [1] was found to be 0%.
On the same counts, the results for `COc1ccc(NC(=O)N2CCN(C(=O)c3cc4ccccc4o3)CC2C)cc1` (centres unmarked) [Compound 26, 4-(Benzofuran-2-carbonyl)-1-[(4-methoxyphenyl)aminocarbonyl]-2-methylpiperazine] are 170 to 172 °C and 33.6 ± 14.7%.
The like results for `CC1CN(C(=O)OC(C)(C)C)CCN1C(=O)Nc1ccccc1[N+](=O)[O-]` (centres unmarked) [Compound 29, 4-tert-Butoxycarbonyl-2-methyl-1-[(2-nitrophenyl)aminocarbonyl]piperazine] were, in that order, 199 to 201 °C and 50 ± 2.75%.
As for `CC1CN(C(=O)OC(C)(C)C)CCN1C(=O)Nc1cc(C(F)(F)F)ccc1Cl` (centres unmarked) [Compound 30, 4-tert-Butoxycarbonyl-1-[(2-chloro-5-trifluoromethylphenyl)aminocarbonyl]-2-methylpiperazine], the melting point fell in the range of 98 to 100 °C. The inhibition at 10 µM in data set [1] is 91 to 100%. The half-maximal cytotoxic concentration (CC50) at 48 h in data set [2] (48 h) was determined as 63.5 ± 8.22 µM.
On the same counts, the results for `CC1CN(C(=O)OC(C)(C)C)CCN1C(=O)Nc1ccc(Cl)c(C(F)(F)F)c1` (centres unmarked) [Compound 31, 4-tert-Butoxycarbonyl-1-[(4-chloro-3-trifluoromethylphenyl)aminocarbonyl]-2-methylpiperazine] are 157 to 159 °C, 91 to 100% and 20.8 ± 0.64 µM.
In the case of `CC1CN(C(=O)c2cc3ccccc3o2)CCN1C(=O)Nc1ccc(F)cc1` (centres unmarked) [Compound 35, 4-(Benzofuran-2-carbonyl)-1-[(4-fluorophenyl)aminocarbonyl]-2-methylpiperazine], the melting point was in the range of 93 to 95 °C. Also, the inhibition at 10 µM in data set [1] is 91 to 100%. The CC50 at 48 h in data set [2] was > 200 µM. Also, in data set [2] (48 h), the CC50 at 48 h was 221 ± 29 µM.
The molecule `CC1CN(C(=O)c2cc3ccccc3o2)CCN1C(=O)Nc1ccccc1F` (centres unmarked) [Compound 37, 4-(Benzofuran-2-carbonyl)-1-[(2-fluorophenyl)aminocarbonyl]-2-methylpiperazine] gave a melting point of 127 to 129 °C. For the same molecule, in data set [1], the inhibition at 10 µM worked out at 50.9 ± 4.13%.
On to `CC1CN(C(=O)c2cc3ccccc3o2)CCN1C(=O)Nc1ccc(F)cc1F` (centres unmarked) [Compound 39, 4-(Benzofuran-2-carbonyl)-1-[(2,4-difluorophenyl)aminocarbonyl]-2-methylpiperazine], for which the melting point is 163 to 165 °C. For the same molecule, the inhibition at 10 µM in data set [1] worked out at 34.2 ± 13.6%.
As for `CC(C)(C)OC(=O)N1CCN(C(=O)Nc2ccc(F)cc2)C(c2ccccc2)C1` (centres unmarked) [Compound 49, 4-tert-Butoxycarbonyl-1-[(4-fluorophenyl)aminocarbonyl]-2-phenylpiperazine], in data set [1], the inhibition at 10 µM came to 75.84 ± 0.49%. Further, in data set [2] (48 h), the midpoint of cytotoxicity, the CC50 at 48 h, lay at 110 ± 8.09 µM.
On the same counts, the results for `CC(C)(C)OC(=O)N1CCN(C(=O)Nc2ccc(C#N)cc2)C(c2ccccc2)C1` (centres unmarked) [Compound 50, 4-tert-Butoxycarbonyl-1-[(4-cyanophenyl)aminocarbonyl]-2-phenylpiperazine] are 67.2 ± 16.5% and 91.3 ± 61.5 µM.
On the same counts, the results for `CC(C)(C)OC(=O)N1CCN(C(=O)Nc2ccccc2[N+](=O)[O-])C(c2ccccc2)C1` (centres unmarked) [Compound 51, 4-tert-Butoxycarbonyl-1-[(2-nitrophenyl)aminocarbonyl]-2-phenylpiperazine] are 100% and 82.2 ± 9.06 µM.
The like results for `CC(C)(C)OC(=O)N1CCN(C(=O)Nc2cc(C(F)(F)F)ccc2Cl)C(c2ccccc2)C1` (centres unmarked) [Compound 52, 4-tert-Butoxycarbonyl-1-[(2-chloro-5-trifluoromethylphenyl)aminocarbonyl]-2-phenylpiperazine] were, in that order, 100% and 93.36 ± 0.73 µM.
Take `CC(C)(C)OC(=O)N1CCN(C(=O)Nc2ccc(Cl)c(C(F)(F)F)c2)C(c2ccccc2)C1` (centres unmarked) [Compound 53, 4-tert-Butoxycarbonyl-1-[(4-chloro-3-trifluoromethylphenyl)aminocarbonyl]-2-phenylpiperazine]: the inhibition at 10 µM in data set [1] is 100%. In data set [2] (48 h), this molecule had a half-maximal cytotoxic concentration (CC50) at 48 h of 27.5 µM.
On the same counts, the results for `COc1ccc(NC(=O)N2CCN(C(=O)OC(C)(C)C)CC2c2ccccc2)cc1` (centres unmarked) [Compound 54, 4-tert-Butoxycarbonyl-1-[(4-methoxyphenyl)aminocarbonyl]-2-phenylpiperazine] are 78.9 ± 1.57% and 133 ± 58.8 µM.
On the same counts, the results for `Cc1ccc(NC(=O)N2CCN(C(=O)OC(C)(C)C)CC2c2ccccc2)cc1` (centres unmarked) [Compound 55, 4-tert-Butoxycarbonyl-1-[(4-methylphenyl)aminocarbonyl]-2-phenylpiperazine] are 63.02 ± 0.2% and 165 ± 17.4 µM.
In the case of `CC(C)(C)C(=O)N1CCN(C(=O)Nc2ccc([N+](=O)[O-])cc2)C(c2ccccc2)C1` (centres unmarked) [Compound 56, 1-[(4-Nitrophenyl)aminocarbonyl]-2-phenyl-4-pivaloylpiperazine], the inhibition at 10 µM in data set [1] was determined as 43.8 ± 13.2%. This molecule also came in with a CC50 at 48 h in data set [2] (48 h) of 102 ± 8.38 µM.
Take `CC(C)(C)C(=O)N1CCN(C(=O)Nc2ccc(C#N)cc2)C(c2ccccc2)C1` (centres unmarked) [Compound 57, 1-[(4-Cyanophenyl)aminocarbonyl]-2-phenyl-4-pivaloylpiperazine]: the melting point was 151 to 153 °C. Also, in data set [1], the inhibition at 10 µM was 84 ± 6.75%. This molecule had a CC50 at 48 h in data set [2] (48 h) of 147 ± 38 µM.
On the same counts, the results for `COc1ccc(NC(=O)N2CCN(C(=O)C(C)(C)C)CC2c2ccccc2)cc1` (centres unmarked) [Compound 58, 1-[(4-Methoxyphenyl)aminocarbonyl]-2-phenyl-4-pivaloylpiperazine] are 62 to 65 °C, 70.1 ± 2.7% and 199 ± 33.6 µM.
In turn, `O=C(c1cc2ccccc2o1)N1CCN(C(=O)Nc2ccc(C(F)(F)F)cc2)C(c2ccccc2)C1` (centres unmarked) [Compound 61, 4-(Benzofuran-2-carbonyl)-2-phenyl-1-[(4-trifluoromethylphenyl)aminocarbonyl]piperazine] gave a melting point of 134 to 136 °C. In data set [1], the inhibition at 10 µM was found to be 100%. This molecule registered a 50% cytotoxic concentration (CC50) at 48 h in data set [2] (48 h) of 70.7 ± 21.4 µM.
In turn, `O=C(c1cc2ccccc2o1)N1CCN(C(=O)Nc2ccc(F)cc2)C(c2ccccc2)C1` (centres unmarked) [Compound 62, 4-(Benzofuran-2-carbonyl)-1-[(4-fluorophenyl)aminocarbonyl]-2-phenylpiperazine] came in with a melting point of 122 to 124 °C. The inhibition at 10 µM in data set [1] amounted to 98.81 ± 0.15%. The molecule also displayed a CC50 at 48 h in data set [2] (48 h) of 12.5 ± 0.79 µM.
